One data set concerns the target SSTR5 (Homo sapiens, UniProt P35346). The experiment in a line: Radioligand binding, displacement of 125I-Tyr11-SRIF-14. Set-up: host or cells: Chem-1 (Rat ChemiSCREEN) cells, membrane preparation. Particulars: hSSTR-5. The method in brief: (§1)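 Assays ran at 25 °C in 25 mM HEPES pH 7.4 with 5 mM MgCl2, 1 mM CaCl2, 0.1% BSA and 1% DMSO. Filter-bound radioactivity gave IC50 by nonlinear least-squares regression.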

For data set [1], the target named is T1, SSTR3 (Homo sapiens, UniProt P32745). Described as above. Further details: host or cells: CHO (Chinese Hamster Ovary) cells, membrane preparation. The method in brief: as §1
Data set [2] deals with T2, SSTR2 (Homo sapiens, UniProt P30874). Described as above. Particulars: hSSTR-2. Further details: host or cells: CHO (Chinese Hamster Ovary) cells, membrane preparation. The method in brief: as §1
Another data set concerns the target SSTR1 (Homo sapiens, UniProt P30872). Described as above. Further details: host or cells: CHO (Chinese Hamster Ovary) cells, membrane preparation. Conditions: hSSTR-1. The method in brief: as §1
The test system of the next data set is GH release. The experiment in a line: L-arginine induced GH release in rats. In kind it is in vivo, Wistar rats. Conditions: S.C. 100-1000 microgram/kg, L-arginine stimulation. The procedure: (§2) In vivo determination of the pharmacodynamic properties of SSTR3 analogs was carried out in rats, according to known procedures (Afargan M. et al., 2001, Pless J. et al 1986).
Inhibition of GH release as a result of peptide administration was measured in Wistar male rats.
(§3) Adult male Wistar rats weighing 200-220 g, were maintained on a constant light-dark cycle (light from 8:00 to 20:00 h), temperature (21±3° C.), and relative humidity (55±10%). Laboratory chow and tap water were available ad libitum. All animals in the study were fasted overnight, animals were placed in cages with metal mesh to prevent coprophagia with free access to water. On the day of the experiment, rats were anesthetized with Nembutal (IP, 60 mg/kg). Ten minutes after anesthesia, drugs were administrated S.C. at 100-1000 microgram/kg dose. At 10 minutes after drugs administration the stimulation of GH and glucagon release were carried out by i.v. bolus administration of 0.5 g/kg L-arginine, stimulation of insulin release was carried out in separate animal groups that received i.v. bolus of 0.5 g/kg of glucose. Terminal blood samples in EDTA were collected at 5 minutes after stimulation. Blood samples were and centrifuged immediately. Plasma was separated and kept frozen at −20° C. until assayed.
Rat growth hormone (rGH), glucagon and insulin levels were determined by commercial ELISA kits using the Millipore ELISA kits (Billerica, MA, USA). The ELISA kit for rat plasma GH, Millipore, Cat. No. EZRMGH-45K was performed according to the validated detection method of colorimetric sandwich ELISA protocol (Supriya S. et al., 2013). The ELISA kit for rat plasma insulin, Millipore Cat. No. MMEZRMI13K (Merck) was performed according to the validated detection method of fluorescent colorimetric protocol (Xu, P.Z. et al., 2012). […]
(§4) Data analysis of rat plasma GH, glucagon and insulin levels was evaluated by the averaged plasma hormones levels of each group. […] Results are expressed as the mean±SEM.

Data set [3] has as its target T1, SSTR3. The experiment in a line: β-Arrestin mediated receptor internalization (PathHunter), transfected CHO cells. The class given is cell-based. Further details: host or cells: CHO cells. The procedure: (§5) The assays were performed utilizing the PathHunter beta-arrestin enzyme fragment complementation (EFC) technology by Eurofins (CA, USA).
(§6) Cell Handling: 1. PathHunter cell lines were expanded from freezer stocks according to standard procedures. 2. Cells were seeded in a total volume of 20 μL into white walled, 384-well microplates and incubated at 37° C. for the appropriate time prior to testing. Agonist Format: 1. For agonist determination, cells were incubated with sample to induce response. 2. Intermediate dilution of sample stocks was performed to generate 5× sample in assay buffer. 3. 5 μL of 5× sample was added to cells and incubated at 37° C. or room temperature for 90 or 180 minutes. Final assay vehicle concentration was 1%. […] Microplates were read following signal generation with a PerkinElmer Envision™ instrument for chemiluminescent signal detection. Data Analysi: Compound activity was analyzed using CBIS data analysis suite (ChemInnovation, CA). […] For agonist mode assays, percentage activity was calculated using the following formula: % Activity=100%×(mean RLU of test sample−mean RLU of vehicle control)/(mean MAX control ligand−mean RLU of vehicle control). […] For antagonist mode assays, percentage inhibition was calculated using the following formula: % Inhibition =100%×(1−(mean RLU of test sample−mean RLU of vehicle control)/(mean RLU of EC80 control−mean RLU of vehicle control)). […]

A further data set addresses T3, hSSTR-4 (Homo sapiens, UniProt P31391).
T3 construct: host or cells: Chem-1 (Rat ChemiSCREEN) cells, membrane preparation
In words: Radioligand binding, displacement of 125I-Tyr11-SRIF-14. Particulars: hSSTR-4. The method in brief: as §1

The subject of the next data set is insulin release. In words: Glucose induced insulin release in rats. The class given is in vivo, Wistar rats. Particulars: S.C. 100-1000 microgram/kg, glucose stimulation. The method, then:
as §2, §3
Rat growth hormone (rGH), glucagon and insulin levels were determined by commercial ELISA kits using the Millipore ELISA kits (Billerica, MA, USA). The ELISA kit for rat plasma GH, Millipore, Cat. No. EZRMGH-45K was performed according to the validated detection method of colorimetric sandwich ELISA protocol (Supriya S. et al., 2013). The ELISA kit for rat plasma insulin, Millipore Cat. No. MMEZRMI13K (Merck) was performed according to the validated detection method of fluorescent colorimetric protocol (Xu, P.Z. et al., 2012). The ELISA kit for rat plasma glucagon, Millipore, Cat. No. EZGLU-35 was performed according to the validated detection method of chemiluminescent sandwich ELISA protocol (Soyeon Y. et al., 2021).
as §4

The nature of another data set: in vivo. Conditions: iv, total radioactivity. The procedure:
(§7) In this example, imaging performance, biodistribution and tumor uptake of SSTR3 selective radioligands in rodents bearing xenografts of transfected SSTR3 cells was determined using the following method: Animal handling was conducted in accordance with the European Council Directive 2010/63/UE. All experimental procedures were approved by the Institutional Ethical Committee and local authorities. For biodistribution studies, female nude nu/nu Balb/c mice or nude nu/nu rats (Charles River) were used. Dynamic PET-CT imaging experiments were performed up to 240 minutes in mice and up to 270 minutes in rats, under isoflurane anesthesia following the intravenous injection of the radiolabeled tracers. All experiments were performed during the light phase of the light—dark cycle. Biodistribution was determined by quantitative analysis of the PET-CT scan and calculated as % percentage of […] of the total injected dose (%ID/g) or by the value of SUV which is the ratio of the image-derived radioactivity concentration Cimg and the whole-body concentration of the injected radioactivity Cinj.

Data set [4] has as its system Xenograft of SSTR3 transfected HEK-293 cells. The experiment in a line: in vivo. Particulars: rat. The method, then:
as §7

Data set [5] relates to Desmoplastic Small Round Cell Tumor with SSTR3 expression. In kind it is in vivo, human. The method, then:
In this example, the safety, biodistribution, imaging performance and tumor uptake in patient with sarcoma type DSRCT tumor positive SSTR3 expression was evaluated. Following radiolabeling of the title compound, the eluted solution of the radiolabel tracer was filtered for sterility and injected intravenously in isotonic solution. PET-CT scan was performed at 30- and 120-minutes post injection of the radiolabeled tracer at approximately 600 Mbq. Body temperature, heart rate, and blood pressure were monitored before during and after the PET-CT scan for safety evaluation. The patient was a person, diagnosed for DSRCT 8 years prior. Over the last 8 years, before the current example, the patient was treated with External beam radiation therapy (EBRT), chemotherapy (Irinotecan/temozolomide, melphalan/treosuflan, gemcitabine/docetaxel, pazopanib, topotecan/cyclophosphamide, cabozantinib, densumab), and laminectomy (to resect spine—tumoral foci). A biopsy analysis was performed 3 months before the PET-CT and indicated high mRNA expression of SSTR3.

The target in data set [6] is T2, SSTR2. The experiment in a line: β-Arrestin mediated receptor internalization (PathHunter), transfected CHO cells. The class given is cell-based. Particulars: SSTR2 transfected cells. The procedure: as §5, §6
Where [7] appears, read: Cheng and Prusoff, read-out: Ki.
The mark [8] stands for this setting: female, nude nu/nu Balb/c, mouse, Kidneys % ID/cm^3.
The mark [9] stands for this setting: female, nude nu/nu Balb/c, mouse, Tumor % ID/cm^3.

*1 amine or outer side, *2 acyl side, *3 side chain or, on linkers, in order; H or OH if unused. Where a SMILES comes first, the peptide text is derived from it. Bridges are numbered along the chain shown (N, C = ends). [ ]: non-standard residue; d: D form. The star is where a group is joined. DOTA = O=C(O)CN1CCN(CC(=O)O)CCN(CC(=O)*)CCN(CC(=O)O)CC1; N(2-mercaptoethyl)Gly = O=C(CN(CCS[*:3])[*:1])[*:2]

T1 sequence (P32745 whole entry): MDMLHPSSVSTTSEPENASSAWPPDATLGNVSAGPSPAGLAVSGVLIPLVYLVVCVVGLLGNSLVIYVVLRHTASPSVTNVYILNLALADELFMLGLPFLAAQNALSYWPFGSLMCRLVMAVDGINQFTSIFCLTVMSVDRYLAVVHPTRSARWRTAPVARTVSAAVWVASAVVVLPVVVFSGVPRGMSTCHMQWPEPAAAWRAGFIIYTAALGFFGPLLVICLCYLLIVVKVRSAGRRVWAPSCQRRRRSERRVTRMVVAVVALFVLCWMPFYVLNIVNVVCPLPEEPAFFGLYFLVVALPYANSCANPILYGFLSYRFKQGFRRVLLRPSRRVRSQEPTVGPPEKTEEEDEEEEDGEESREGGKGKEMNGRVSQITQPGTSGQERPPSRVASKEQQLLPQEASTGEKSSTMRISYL
SSTR5, sequence (P35346 whole entry): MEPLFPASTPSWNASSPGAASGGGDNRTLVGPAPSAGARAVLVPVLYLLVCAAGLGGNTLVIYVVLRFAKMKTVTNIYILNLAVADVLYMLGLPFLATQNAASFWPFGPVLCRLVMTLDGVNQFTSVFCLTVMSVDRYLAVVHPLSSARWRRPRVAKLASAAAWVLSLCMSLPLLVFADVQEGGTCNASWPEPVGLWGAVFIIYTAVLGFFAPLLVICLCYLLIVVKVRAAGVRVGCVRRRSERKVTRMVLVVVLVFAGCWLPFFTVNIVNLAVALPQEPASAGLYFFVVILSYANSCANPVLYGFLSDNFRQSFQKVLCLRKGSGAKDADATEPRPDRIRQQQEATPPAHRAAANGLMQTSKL
T2 sequence (P30874 whole entry): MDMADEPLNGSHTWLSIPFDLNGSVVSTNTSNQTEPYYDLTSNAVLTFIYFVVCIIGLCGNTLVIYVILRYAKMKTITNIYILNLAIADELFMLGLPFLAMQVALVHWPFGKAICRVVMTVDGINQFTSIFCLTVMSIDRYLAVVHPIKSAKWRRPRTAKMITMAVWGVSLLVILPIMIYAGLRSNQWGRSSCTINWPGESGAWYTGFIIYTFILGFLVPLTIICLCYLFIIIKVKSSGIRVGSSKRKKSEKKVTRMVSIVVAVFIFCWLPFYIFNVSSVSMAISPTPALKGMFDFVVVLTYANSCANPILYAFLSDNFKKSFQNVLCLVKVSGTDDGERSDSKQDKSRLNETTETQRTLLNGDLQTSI
SSTR1, sequence (P30872 whole entry): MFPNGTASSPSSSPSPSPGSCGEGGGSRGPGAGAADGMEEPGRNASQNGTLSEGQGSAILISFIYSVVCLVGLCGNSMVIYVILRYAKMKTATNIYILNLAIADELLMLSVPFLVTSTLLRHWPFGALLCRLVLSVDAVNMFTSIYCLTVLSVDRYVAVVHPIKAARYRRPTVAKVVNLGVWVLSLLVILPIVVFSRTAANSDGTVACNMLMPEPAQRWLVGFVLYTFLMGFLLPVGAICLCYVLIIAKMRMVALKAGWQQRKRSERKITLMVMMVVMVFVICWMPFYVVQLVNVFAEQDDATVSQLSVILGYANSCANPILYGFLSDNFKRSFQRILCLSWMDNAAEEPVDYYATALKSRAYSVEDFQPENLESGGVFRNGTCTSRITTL
T3 sequence (P31391 whole entry): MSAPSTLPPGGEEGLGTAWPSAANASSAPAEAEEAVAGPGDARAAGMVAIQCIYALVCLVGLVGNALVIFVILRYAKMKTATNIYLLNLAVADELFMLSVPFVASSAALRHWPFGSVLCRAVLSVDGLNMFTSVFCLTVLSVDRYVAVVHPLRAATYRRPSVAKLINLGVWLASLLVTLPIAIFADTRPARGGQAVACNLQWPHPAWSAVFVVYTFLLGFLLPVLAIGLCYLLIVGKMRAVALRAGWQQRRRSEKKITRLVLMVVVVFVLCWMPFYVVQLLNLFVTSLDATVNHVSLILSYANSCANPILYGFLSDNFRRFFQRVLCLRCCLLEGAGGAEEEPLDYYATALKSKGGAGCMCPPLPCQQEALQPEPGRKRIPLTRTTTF

For `C[C@@H](O)[C@@H]1NC(=O)[C@H](CCCCN)NC(=O)[C@@H](Cc2c[nH]c3ccccc23)NC(=O)[C@H](Cc2ccccc2)NC(=O)[C@@H](NC(=O)[C@H](CCCNC(=N)N)NC(=O)[C@H](N)Cc2ccccc2)CSSCCN(CC(N)=O)C(=O)[C@H](Cc2ccccc2)NC1=O` [SEQ ID NO: 1, H-D-Phe^1-Arg^2-Cys^3-Phe^4-D-Trp^5-Lys^6-Thr^7-Phe^8-NTEG^9-NH^2 (cyclo 3-9)] (H-[dF]RCF[dW]KTF[N(2-mercaptoethyl)Gly]-NH2; disulfide 3-9), the “Hill coefficient (nH)” value on SSTR5 is given as 1.2; on SSTR3 [1] (hSSTR-3) it was 1.28; at SSTR2 [2], 1.25; at SSTR1 it was 0.74; at hSSTR-4, 1.24. The Ki – broadly, the equilibrium dissociation constant of an inhibitor or competing ligand from its target – on SSTR5 (setting [7]) was 170 nM; on SSTR3 [1] (hSSTR-3, Cheng and Prusoff, read-out: Ki), 0.15 nM; at SSTR2 [2] (setting [7]) it was 320 nM; on SSTR1 (setting [7]), 150 nM; on hSSTR-4 (setting [7]), more than 1000 nM. Besides, the IC50 (as a rule, the midpoint of a concentration-inhibition curve) is 310 nM at SSTR5 (read-out: IC50); 0.43 nM at SSTR3 [1] (hSSTR-3, read-out: IC50); 390 nM at SSTR2 [2] (read-out: IC50); 180 nM at SSTR1 (read-out: IC50); more than 1000 nM at hSSTR-4 (read-out: IC50). Besides, on SSTR3 [1] (binding data), the “affinity and selectivity to SSTR3 (in words)” value was “high affinity and selectivity to human cloned SSTR3 in the nanomolar range”. The “inhibition of GH release” value is listed as “potent inhibitors of pituitary GH release” in the data set with GH release (listed as SEQ ID NO.1) and “potent anti-secretagogue of growth hormone secretion” in the data set with GH release (listed as SEQ ID NO:1). In addition, the “agonistic activity profile at SSTR3 (in words)” value on SSTR3 [3] is “superagonistic activity profile of SSTR3 above the native hormone SRIF-14”. The “effect on insulin release” value in the data set on insulin release is “did not affect insulin release”.

As to `C[C@@H](O)[C@@H]1NC(=O)[C@H](CCCCN)NC(=O)[C@@H](Cc2c[nH]c3ccccc23)NC(=O)[C@H](Cc2ccccc2)NC(=O)[C@@H](NC(=O)[C@H](CCCNC(=N)N)NC(=O)[C@@H](Cc2ccccc2)NC(=O)CN2CCN(CC(=O)O)CCN(CC(=O)O)CCN(CC(=O)O)CC2)CSSCCN(CC(N)=O)C(=O)[C@H](Cc2ccccc2)NC1=O` [^68Ga -SEQ ID NO: 4, metal not drawn] ({DOTA}-[dF]RCF[dW]KTF[N(2-mercaptoethyl)Gly]-NH2; disulfide 3-9), in “in vivo” (setting [8]), the tissue uptake per volume at 2.5 h was found to be 6 %ID/mL and the tissue uptake per volume at 4 h was determined as 6.6 %ID/mL. In “in vivo” (setting [9]), the tissue uptake per volume at 2.5 h is 9.6 %ID/mL and the tissue uptake per volume at 4 h was 12.3 %ID/mL. For the same compound, the tissue uptake per volume at 2.5 h in the data set “in vivo” (nude nu/nu, rat, Kidneys % ID/cm^3) turned out to be 3.2 %ID/mL. For the same compound, the tissue uptake per volume at 2.5 h in “in vivo” (nude nu/nu, rat, Tumor % ID/cm^3) amounted to 4.7 %ID/mL. Further, in data set [4], the “tumor uptake above the kidneys (tumor/kidneys)” value is on record as “approximately 50%”. Also, in [4] (iv), the “Kidneys SUV” value stood at 7.6 and the “Tumor SUV” value is 11.0. Further, in [5] (human, in vivo), the safety evaluations entry is reported as “no abnormal toxicity signs” and the “uptake in off-target organs” value is “no uptake in off-target organs”. In addition, the “elimination of the tracer” value in data set [5] (human, in vivo, iv) is recorded as “rapid elimination of the tracer was observed from the blood to the kidneys”. In [5] (patient with DSRCT, FIG. 9), the “tumor uptake (radioactive foci)” value is “several radioactive foci were detected in the lung, neck and pelvic regions”.

In the case of `C[C@@H](O)[C@@H]1NC(=O)[C@H](CCCCN)NC(=O)[C@@H](Cc2c[nH]c3ccccc23)NC(=O)[C@H](Cc2ccccc2)NC(=O)[C@@H](NC(=O)[C@H](N)Cc2ccccc2)CSSC[C@@H](C(=O)N[C@H](CO)[C@@H](C)O)NC1=O` [octreotide, reference compound], the “effect on insulin release” value with insulin release was “exhibits anti-secretagogue effect of pancreatic release of insulin”.

As for SRIF-28, at SSTR2 [6], the “Efficacy - maximal response” value worked out at 47480 RLU and the Note entry is “Agonist”.

The values above are taken from patent publication US20240165282A1, “CONFORMATIONAL CONSTRAINED SOMATOSTATIN RECEPTOR 3 PEPTIDE LIGANDS AND THEIR CONJUGATES AND USES THEREOF” (STARGET PHARMA LTD., priority 2021, published 2024).
